Consider two compounds from patent US8088731B2, “Use of GLP-1 compound for treatment of critically ill patients” (Novo Nordisk A/S, priority 2002, dated 2012).

For series [1], the system named is subjects with type 2 diabetes. Description: Graded glucose infusion crossover study of beta cell sensitivity to glucose after a single dose. Particulars: single dose 7.5 μg/kg. In kind it is in vivo, human. Here is the method:
Using a graded glucose infusion protocol with plasma glucose levels matched over the range of 5 to 12 mmol/L beta cell sensitivity was assessed. Insulin secretion rates (ISR) were estimated by deconvolution of circulating C-peptide concentrations. Findings were compared to responses of 10 healthy, nondiabetic volunteers to the same glucose infusion protocol.

For series [2], the system named is subjects with type 2 diabetes. Description: 12 week randomised, double-blind, dose-response, placebo controlled and open label glimepiride study of glucose lowering effect. In kind it is in vivo, human. To be noted: 12 weeks. The procedure: The dose of glimepiride was adjusted during the first 4 weeks based on glycaemic control with a treatment target of fasting serum glucose <7 mM, with a dose not exceeding 4 mg/day. Results

For `CCCCCCCCCCCCCCCC(=O)N[C@@H](CCC(=O)NCCCC[C@H](NC(=O)[C@H](C)NC(=O)[C@H](C)NC(=O)[C@H](CCC(N)=O)NC(=O)CNC(=O)[C@H](CCC(=O)O)NC(=O)[C@H](CC(C)C)NC(=O)[C@H](Cc1ccc(O)cc1)NC(=O)[C@H](CO)NC(=O)[C@H](CO)NC(=O)[C@@H](NC(=O)[C@H](CC(=O)O)NC(=O)[C@H](CO)NC(=O)[C@@H](NC(=O)[C@H](Cc1ccccc1)NC(=O)[C@@H](NC(=O)CNC(=O)[C@H](CCC(=O)O)NC(=O)[C@H](C)NC(=O)[C@@H](N)Cc1cnc[nH]1)[C@@H](C)O)[C@@H](C)O)C(C)C)C(=O)N[C@@H](CCC(=O)O)C(=O)N[C@@H](Cc1ccccc1)C(=O)N[C@H](C(=O)N[C@@H](C)C(=O)N[C@@H](Cc1c[nH]c2ccccc12)C(=O)N[C@@H](CC(C)C)C(=O)N[C@H](C(=O)N[C@@H](CCCNC(=N)N)C(=O)NCC(=O)N[C@@H](CCCNC(=N)N)C(=O)NCC(=O)O)C(C)C)[C@@H](C)CC)C(=O)O` [NN2211, Arg^34, Lys^26(N^ε-(γ-Glu(N^α-hexadecanoyl)))-GLP-1(7-37)], the “C-peptide levels compared to placebo” value in series [1] (type 2 diabetes subjects) is recorded as “increased”. Besides, in series [1] (type 2 diabetes subjects), the hypoglycemic events entry is “No hypoglycemic events occurred”. For the same compound, in series [1] (type 2 diabetes subjects), the “insulin levels compared to placebo” value is given as “increased”. Also, the “slope of ISR vs. plasma glucose” value in series [1] (type 2 diabetes subjects, graded glucose infusion, p<0.014 vs placebo) is listed as 1.26±0.36 pmol*L/(min*mmol*kg). Further, the “insulin secretion at low glucose levels” value in series [1] (versus non-diabetic controls) is on record as “comparable to the non-diabetic controls”. Further, the “mean serum fasting glucose decrease compared with placebo” value is 2.14 mmol/L in series [2] (0.60 mg once daily s.c., p<0.0001) and 1.82 mmol/L in series [2] (0.75 mg once daily s.c., p=0.0003). Moreover, the “mean decrease compared to placebo in HbA1c” value is 0.70 percentage points in series [2] (0.60 mg once daily s.c., p=0.0002) and 0.75 percentage points in series [2] (0.75 mg once daily s.c., p<0.0001). Moreover, in series [2] (two highest dose groups (0.60 and 0.75 mg)), the “subjects that reported any hypoglycaemic episode” value came out at 7%.

As to `CCC1=C(C)CN(C(=O)NCCc2ccc(S(=O)(=O)NC(=O)N[C@H]3CC[C@H](C)CC3)cc2)C1=O` [glimepiride, reference compound], in series [2] (glimepiride group), the “subjects that reported any hypoglycaemic episode” value was found to be 31%. The “reduction compared to placebo on FSG” value in series [2] (glimepiride p.o. once daily, open-label, titrated, not exceeding 4 mg/day) is -2.6 mM. The “reduction compared to placebo on HbA1c” value in series [2] (glimepiride p.o. once daily, open-label, titrated, not exceeding 4 mg/day, p=0.0001) worked out at 0.74%.
